In US11919902B2, “Aryl-bipyridine amine derivatives as phosphatidylinositol phosphate kinase inhibitors” (HiberCell, Inc., priority 2017, dated 2024):

Assays:
[1] = molecular target: T1, GST tagged PIP4KtypeIIA (Homo sapiens, UniProt P48426); test: ADP-glo kinase assay PIP4K 2A (PIP4KtypeIIA inhibition assay); assay type: biochemical; conditions: Table 3; compounds listed under IC50 range headings; 10 uM ATP, 0.5 nM PIP4KIIA
T1 construct: made in house; host or cells: E. coli
T1 sequence (P48426 1-406): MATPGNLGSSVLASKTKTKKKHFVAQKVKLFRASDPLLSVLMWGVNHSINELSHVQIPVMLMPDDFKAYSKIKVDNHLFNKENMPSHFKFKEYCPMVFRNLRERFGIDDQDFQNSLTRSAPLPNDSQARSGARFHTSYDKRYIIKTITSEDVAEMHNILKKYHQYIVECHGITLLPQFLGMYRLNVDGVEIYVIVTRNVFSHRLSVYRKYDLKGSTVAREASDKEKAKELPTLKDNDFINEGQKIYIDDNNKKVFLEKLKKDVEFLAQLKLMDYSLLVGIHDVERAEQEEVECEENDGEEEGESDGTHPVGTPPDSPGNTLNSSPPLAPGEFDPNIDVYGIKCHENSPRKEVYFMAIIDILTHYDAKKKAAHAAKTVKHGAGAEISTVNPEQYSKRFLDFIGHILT
Outline: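 Read-out was ADP-Glo luminescence converted to μM ADP, with IC50 plotted as % of no-inhibitor activity against log concentration. Reactions contained 10 μM ATP, 80 μM PI5P with DOPE carrier, and 0.5 nM GST-tagged PIP4KIIA (E. coli-expressed) in pH 7.3 HEPES/MgCl2 buffer with 5% DMSO. Enzyme and compound (≤4.8 μM) were preincubated 1 h at 27 °C before the 1 h reaction.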

[2] = molecular target: T2, PIP4K2A (full length protein, SignalChem) (Homo sapiens, UniProt P48426); test: Kinase Assay PIP4K2 A (Sprint); ADP-Glo biochemical assay; conditions: Table 2; compounds listed under IC50 range headings
T2 construct: 4 nM PIP4K2A (full length protein, SignalChem); purchased SignalChem
T2 sequence (P48426 1-406): T1 sequence (P48426 1-406)
Outline: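 ADP-Glo luminescence detected ADP after a 1 h RT reaction started with 60 μM ATP solution. Before that, full-length PIP4K2A (4 nM in mix) with 100 μM PI(5)P diC8 was pre-incubated 15 min with compounds in MOPS buffer pH 7.2, 25 mM MgCl2, 0.005% Tween 20. IC50 derived from % inhibition relative to DMSO over 10 three-fold concentrations.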

[3] = molecular target: T3, GST tagged PIP4KtypeIIB (Homo sapiens, UniProt P78356); test: Trans-FI P kinase assay PIP4K2B (PIP4KtypeIIB inhibition assay); assay type: biochemical; conditions: Table 4; compounds listed under IC50 range headings; 100 uM GTP, 5 nM PIP4KIIB; read-out: Trans-FI P kinase assays: PIP4K2B IC50
T3 construct: made in house; host or cells: E. coli
T3 sequence (P78356 1-416): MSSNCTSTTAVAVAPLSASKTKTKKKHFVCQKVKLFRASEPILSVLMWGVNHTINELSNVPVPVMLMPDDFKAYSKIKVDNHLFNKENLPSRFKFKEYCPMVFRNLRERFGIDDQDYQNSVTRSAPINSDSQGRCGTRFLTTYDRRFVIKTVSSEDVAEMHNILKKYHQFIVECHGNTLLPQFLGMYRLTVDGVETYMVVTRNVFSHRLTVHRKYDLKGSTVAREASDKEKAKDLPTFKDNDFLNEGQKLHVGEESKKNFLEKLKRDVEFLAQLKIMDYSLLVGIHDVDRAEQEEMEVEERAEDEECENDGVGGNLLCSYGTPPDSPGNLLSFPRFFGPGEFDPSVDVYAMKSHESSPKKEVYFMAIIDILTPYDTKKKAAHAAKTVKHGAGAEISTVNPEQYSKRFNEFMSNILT
Outline: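 Transcreener FI fluorescence, converted to GDP by calibration, tracked product from 5 nM E. coli-expressed GST-PIP4KIIB acting on 80 uM PI5P (DOPE carrier) with 100 uM GTP. Compound (top 4.8 uM final, 5% DMSO) was preincubated 1 h at 27 C before the 2 h reaction; IC50 fitted from residual activity.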

Compound | IC50 [1] [nM] | IC50 [2] [nM] | IC50 [3] [nM]
CN(C)C(=O)c1ccc(-c2cncc(-c3ccnc4c3ccn4C)c2)cc1 [Example 5, N,N-dimethyl-4-(5-(1-methyl-1H-pyrrolo[2,3-b]pyridin-4-yl)pyridin-3-yl)benzamide] | 2500 to 5000 | 100 to 1000 | 1000 to 2500
CN(C)C(=O)c1ccc(-c2cc(-c3ccnc4cc(C#N)ccc34)cnc2N)nc1 [Example 109, 2′-amino-5′-(7-cyanoquinolin-4-yl)-N,N-dimethyl-[2,3′-bipyridine]-5-carboxamide] | 2500 to 5000 | 1000 to 2500 | 1000 to 2500
CN(C)C(=O)c1ccc(-c2cc(-c3cc(Nc4cccc(NC(=O)c5cccc(N)c5)c4)ncn3)cnc2N)nc1 [Example 219, 2′-amino-5′-(6-((3-(3-aminobenzamido)phenyl)amino)pyrimidin-4-yl)-N,N-dimethyl-[2,3′-bipyridine]-5-carboxamide] | 1000 to 2500 | 100 to 1000 | 100 to 1000
CN(CC1CCNCC1)C(=O)c1ccc(-c2cncc(-c3ccncc3)c2)cc1 [Example 179, 4-([3,4′-bipyridin]-5-yl)-N-methyl-N-(piperidin-4-ylmethyl)benzamide] | > 5000 | < 5000 | > 5000
COc1cnc2[nH]ccc2c1-c1cncc(-c2ccc(N3CCCC3=O)cc2)c1 [Example 34, 1-(4-(5-(5-methoxy-1H-pyrrolo[2,3-b]pyridin-4-yl)pyridin-3-yl)phenyl)pyrrolidin-2-one] | 100 to 1000 | 5 to 100 | 100 to 1000
CN(C)C(=O)c1ccc(-c2cc(-c3ccnc(CNC(=O)c4ccc(N)cc4)c3)cnc2N)nc1 [Example 188, 2′-amino-2″-((4-aminobenzamido)methyl)-N,N-dimethyl-[2,3′:5′,4″-terpyridine]-5-carboxamide] | > 5000 | 1000 to 2500 | 1000 to 2500
CN(C)C(=O)c1cc2c(-c3cncc(-c4ccc(N5CCCC5=O)cc4)c3)ccnc2[nH]1 [Example 241, N,N-dimethyl-4-(5-(4-(2-oxopyrrolidin-1-yl)phenyl)pyridin-3-yl)-1H-pyrrolo[2,3-b]pyridine-2-carboxamide] | 10 to 100 | 5 to 100 | 10 to 100
COc1ncc(-c2cncc(-c3ccc(N4CCCC4=O)cc3)c2)c2cn(C)nc12 [Example 157, 1-[4-[5-(7-methoxy-2-methyl-pyrazolo[3,4-c]pyridin-4-yl)-3-pyridyl]phenyl]pyrrolidin-2-one] | 100 to 1000 | 100 to 1000 | 100 to 1000
Nc1ncc(-c2ccncc2)cc1-c1ccc(N2CCCC2=O)cc1 [Example 84, 1-(4-(6-amino-[3,4′-bipyridin]-5-yl)phenyl)pyrrolidin-2-one] | 100 to 1000 | 100 to 1000 | 100 to 1000
CC(=O)N(C)c1cc(-c2cncc(-c3ccc(N4CCCC4=O)cc3)c2)ccn1 [Example 57, N-methyl-N-(5-(4-(2-oxopyrrolidin-1-yl)phenyl)-[3,4′-bipyridin]-2′-yl)acetamide] | > 5000 | < 5000 | > 5000
Cc1c(-c2ccc(N3CCCC3=O)cc2)cncc1-c1cn(C)c2ncc(C(C)(C)O)cc12 [Example 172, 1-(4-(5-(5-(2-hydroxypropan-2-yl)-1-methyl-1H-pyrrolo[2,3-b]pyridin-3-yl)-4-methylpyridin-3-yl)phenyl)pyrrolidin-2-one] | 1000 to 2500 | 100 to 1000 | 1000 to 2500
Cn1cc2c(-c3cncc(-c4ccc(N5CCCC5=O)cc4)c3)c[nH]c(=O)c2n1 [Example 159, 2-methyl-4-(5-(4-(2-oxopyrrolidin-1-yl)phenyl)pyridin-3-yl)-2,6-dihydro-7H-pyrazolo[3,4-c]pyridin-7-one] | 100 to 1000 | 5 to 100 | 100 to 1000
CNC(=O)c1cnc2c(c1)c(-c1cncc(-c3ccc(N4CCCC4=O)cc3)c1)cn2C [Example 60, N,1-dimethyl-3-(5-(4-(2-oxopyrrolidin-1-yl)phenyl)pyridin-3-yl)-1H-pyrrolo[2,3-b]pyridine-5-carboxamide] | 100 to 1000 | 5 to 100 | 100 to 1000
N#Cc1[nH]c2ncccc2c1-c1cncc(-c2ccc(N3CCCC3=O)cc2)c1 [Example 51, 3-(5-(4-(2-oxopyrrolidin-1-yl)phenyl)pyridin-3-yl)-1H-pyrrolo[2,3-b]pyridine-2-carbonitrile] | 100 to 1000 | 5 to 100 | 10 to 100
Nc1ncc(-c2c[nH]c3ncc(Cl)cc23)cc1-c1ccc(N2CCCC2=O)cn1 [Example 26, 1-(2′-amino-5′-(5-chloro-1H-pyrrolo[2,3-b]pyridin-3-yl)-[2,3′-bipyridin]-5-yl)pyrrolidin-2-one] | 10 to 100 | 5 to 100 | 100 to 1000
CS(=O)(=O)N1Cc2nccc(-c3cncc(-c4ccc(N5CCCC5=O)cc4)c3)c2C1 [Example 64, 1-(4-(5-(6-(methylsulfonyl)-6,7-dihydro-5H-pyrrolo[3,4-b]pyridin-4-yl)pyridin-3-yl)phenyl)pyrrolidin-2-one] | > 5000 | 100 to 1000 | > 5000
CN(C)C(=O)c1ccc(-c2cncc(-c3cnc4[nH]ccc4c3)c2)cc1 [Example 4, 4-(5-(1H-pyrrolo[2,3-b]pyridin-5-yl)pyridin-3-yl)-N,N-dimethylbenzamide] | 2500 to 5000 | 100 to 1000 | 2500 to 5000
O=C1CCCN1c1ccc(-c2cncc(-c3cc(Cl)nc4n[nH]cc34)c2)cc1 [Example 224, 1-(4-(5-(6-chloro-2H-pyrazolo[3,4-b]pyridin-4-yl)pyridin-3-yl)phenyl)pyrrolidin-2-one] | 10 to 100 | 5 to 100 | 10 to 100
Cn1ccc2c(-c3cncc(-c4ccc(N5CCCC5=O)cc4)c3)cn(C)c2c1=O [Example 243, 1,6-dimethyl-3-(5-(4-(2-oxopyrrolidin-1-yl)phenyl)pyridin-3-yl)-1,6-dihydro-7H-pyrrolo[2,3-c]pyridin-7-one] | 100 to 1000 | 100 to 1000 | 100 to 1000
CNC(=O)c1cc2c(-c3cncc(-c4ccc(C(=O)N(C)C)cc4)c3)ccnc2o1 [Example 14, 4-(5-(4-(dimethylcarbamoyl)phenyl)pyridin-3-yl)-N-methylfuro[2,3-b]pyridine-2-carboxamide] | 100 to 1000 | 100 to 1000 | 100 to 1000
COC(=O)c1cc2c(-c3cncc(-c4ccc(N5CCCC5=O)cc4)c3)ccnc2[nH]1 [Example 302, methyl 4-(5-(4-(2-oxopyrrolidin-1-yl)phenyl)pyridin-3-yl)-1H-pyrrolo[2,3-b]pyridine-2-carboxylate] | 10 to 100 | 5 to 100 | 10 to 100
Cn1ncc2c(-c3cncc(-c4ccc(N5CCCC5=O)cc4)c3)cn(CC#N)c(=O)c21 [Example 160, 2-(1-methyl-7-oxo-4-(5-(4-(2-oxopyrrolidin-1-yl)phenyl)pyridin-3-yl)-1,7-dihydro-6H-pyrazolo[3,4-c]pyridin-6-yl)acetonitrile] | 100 to 1000 | 100 to 1000 | 100 to 1000
CN(C)C(=O)c1ccc(-c2cc(-c3ccnc4cc(N(C)C)ccc34)cnc2N)nc1 [Example 110, 2′-amino-5′-(7-(dimethylamino)quinolin-4-yl)-N,N-dimethyl-[2,3′-bipyridine]-5-carboxamide] | 100 to 1000 | 100 to 1000 | 100 to 1000
CC(O)c1cnc2[nH]cc(-c3cncc(-c4ccc(C(=O)N(C)C)cc4)c3)c2c1 (stereo not drawn) [Example 15, 4-(5-(5-(1-hydroxyethyl)-1H-pyrrolo[2,3-b]pyridin-3-yl)pyridin-3-yl)-N,N-dimethylbenzamide] | 100 to 1000 | 5 to 100 | 100 to 1000
